# Laboratory results: US20250092065A1, “2-(INDAZOL-5-YL)-6-(PIPERIDIN-4-YL)-1,7-NAPHTHYRIDINE DERIVATIVES AND RELATED COMPOUNDS AS MODULATORS FOR SPLICING NUCLEIC ACIDS AND FOR THE TREATMENT OF PROLIFERATIVE DISEASES” (REMIX THERAPEUTICS INC., priority 2022, published 2025)
# Like-named read-outs stand apart in the source and are kept apart here.
# Columns and labels:
# MYB mRNA = assay: RT-qPCR splicing assay, MYB mRNA canonical (CJ) and alternative (AJ) junction; format: cell-based, human; settings: Homo sapiens; for AC50: MYB alternative junction mRNA, read-out: MYB AJ (increase in AJ mRNA, AC50)
# In short: (§1)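 A673 or K562 cells treated 24 h at 37 °C with an 11-point 3-fold dilution series (top 10 uM, DMSO ≤0.25%). Lysates went directly to one-step RT-qPCR quantifying canonical (CJ) and alternative-exon (AJ) junctions, normalized to GAPDH, GUSB or PPIA. Values from ΔΔCt versus DMSO, RQ = 2^(−ΔΔCt), expressed as percentage response.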
# K562 cells = assay: Cell Titer Glo 2.0 cell viability (toxicity) assay, K562; settings: 500 cells/well, 72 hours
# Target C = assay: RT-qPCR canonical junction panel assay, Target C mRNA; format: cell-based; settings: Table 4, read-out: Target C IC50 (decrease in CJ mRNA levels)
# In short: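 A673 or K562 cells treated with compound; CJ mRNA quantified by junction-spanning RT-qPCR probe after cDNA synthesis, normalised to GAPDH, GUSB or PPIA and DMSO (2^−ΔΔCt), scaled to set ΔCt assay window; IC50 from 4-parameter fit of CJ decrease.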
# SMN2 mRNA = assay: RT-qPCR splicing assay, SMN2 mRNA; format: cell-based, human; settings: Homo sapiens, canonical junction qPCR panel, Table 4; read-out: SMN2 IC50 (decrease in CJ mRNA levels)
# In short: as §1
# HTT mRNA = assay: RT-qPCR splicing assay, HTT mRNA canonical (CJ) and alternative (AJ) junction; format: cell-based, human; settings: Homo sapiens; for AC50: HTT alternative junction mRNA, read-out: HTT AJ (increase in AJ mRNA, AC50)
# In short: as §1
# [1] = MYB canonical junction mRNA, RT-qPCR, read-out: MYB CJ (decrease in CJ mRNA levels, IC50)
# [2] = canonical junction qPCR panel, Table 4, read-out: MYB IC50 (decrease in CJ mRNA levels)
# [3] = HTT canonical junction mRNA, RT-qPCR, read-out: HTT CJ (decrease in CJ mRNA levels, IC50)
# [4] = canonical junction qPCR panel, Table 4, read-out: HTT IC50 (decrease in CJ mRNA levels)
Structure (SMILES),AC50 (MYB mRNA; RT-qPCR),IC50 (MYB mRNA; [1]),IC50 (MYB mRNA; [2]),"Effect of Exemplary Compounds on Cell Viability, K562 (K562 cells)",IC50 (Target C),IC50 (SMN2 mRNA),AC50 (HTT mRNA; RT-qPCR),IC50 (HTT mRNA; [3]),IC50 (HTT mRNA; [4])
"C[C@H]1C[C@H](c2ccc3nc(-c4cc5cn(C)nc5c(F)c4O)ccc3n2)CCN1 (single isomer, unassigned) [Compound 356]",< 100 nM,< 100 nM,< 100 nM,A (A represents <100 nM),100 to 1000 nM,< 100 nM,< 100 nM,< 100 nM,< 100 nM
"Cc1c(O)c(-c2ccc3nc(N4CC[C@H](N[C@H]5C[C@H](F)C5)C4)ccc3n2)cc2cn(C)nc12 (single isomer, unassigned) [Compound 358]",< 100 nM,< 100 nM,< 100 nM,B (B represents 100-1000 nM),100 to 1000 nM,< 100 nM,< 100 nM,< 100 nM,< 100 nM
"Cn1cc2cc(-c3ccc4nc(N5CC[C@@H](N)C5)ccc4n3)c(O)c(F)c2n1 (single isomer, unassigned) [Compound 362]",< 100 nM,< 100 nM,< 100 nM,A (A represents <100 nM),100 to 1000 nM,< 100 nM,< 100 nM,< 100 nM,< 100 nM
"CN[C@@H]1CCN(c2ccc3nc(-c4cc5cn(C)nc5c(C)c4O)ncc3n2)C1 (single isomer, unassigned) [Compound 368]",< 100 nM,< 100 nM,< 100 nM,A (A represents <100 nM),1000 to 10000 nM,< 100 nM,100 to 1000 nM,100 to 1000 nM,100 to 1000 nM
"CN[C@H]1CCN(c2ccc3nc(-c4cc5cn(C)nc5c(C)c4O)ncc3n2)C1 (single isomer, unassigned) [Compound 369]",100 to 1000 nM,100 to 1000 nM,100 to 1000 nM,B (B represents 100-1000 nM),1000 to 10000 nM,< 100 nM,100 to 1000 nM,100 to 1000 nM,100 to 1000 nM
"Cc1nc2c(F)c(O)c(-c3ccc4nc(N5CC[C@H](NC6(CF)CC6)C5)ccc4n3)cc2o1 (single isomer, unassigned) [Compound 373]",< 100 nM,< 100 nM,< 100 nM,A (A represents <100 nM),< 100 nM,< 100 nM,< 100 nM,< 100 nM,< 100 nM
"Cc1nc2c(C)c(O)c(-c3ccc4nc(N5CC[C@H](NC6(CF)CC6)C5)ccc4n3)cc2o1 (single isomer, unassigned) [Compound 378]",< 100 nM,< 100 nM,< 100 nM,B (B represents 100-1000 nM),< 100 nM,< 100 nM,< 100 nM,< 100 nM,< 100 nM
"Cc1nc2c(C)c(O)c(-c3ccc4nc(N5CC[C@@H](NC6(CF)CC6)C5)ccc4n3)cc2o1 (single isomer, unassigned) [Compound 379]",100 to 1000 nM,100 to 1000 nM,100 to 1000 nM,B (B represents 100-1000 nM),100 to 1000 nM,< 100 nM,100 to 1000 nM,< 100 nM,< 100 nM
"Cn1cc2cc(-c3ncc4nc(N5CC[C@@H](N)C5)ccc4n3)c(O)c(F)c2n1 (single isomer, unassigned) [Compound 380]",< 100 nM,< 100 nM,< 100 nM,A (A represents <100 nM),1000 to 10000 nM,< 100 nM,100 to 1000 nM,< 100 nM,< 100 nM
"C[C@H]1C[C@@H](c2ccc3nc(-c4cc5cn(C)nc5c(F)c4O)ccc3n2)CCN1 (single isomer, unassigned) [Compound 383]",< 100 nM,< 100 nM,< 100 nM,A (A represents <100 nM),100 to 1000 nM,< 100 nM,< 100 nM,< 100 nM,< 100 nM
